The structures appear in SMILES notation.

These results are taken from patent US20250108070A1, “METHOD FOR REPROGRAMMING CD8+ T CELLS TO ENHANCE THEIR THERAPEUTIC POTENTIAL AND APPLICATIONS THEREOF” (INSTITUT PASTEUR, priority 2022, published 2025).

Assay [1] deals with GSK3. Particulars: reference 42; cited from earlier work.
In assay [2] the test system is CD8+ T cells from people without HIV. Briefly: In vitro reprogramming of bulk CD8+ T cells, phenotype without further stimulation. Type of assay: cell-based, human. Particulars: BIO and TWS119 in parallel, 3 μM, 12 hs. How it is done: FIG. 1. Induction of stem-like CD8^+ T cells with high survival capacity and polyfunctionality by in vitro reprogramming. A. CD8^+ T cells from people without HIV were incubated with medium, vehicle control, or a GSK3 inhibitor, for 12 hs and the phenotype was evaluated by flow cytometry. A representative donor from a total of 4 is shown. B. Frequencies of CD8^+ T cell subpopulations after each treatment. C. Fold change of CD8^+ T cell subpopulations after treatment with vehicle control or a GSK3 inhibitor, relative to medium alone condition (n=4). D. Expression of TCF-1 in CD8^+ T cell subpopulations (n=4). E. The expression of the indicated markers in cells pre-treated with vehicle control or a GSK3 inhibitor was evaluated by flow cytometry. The fold change in the expression induced by 48 hs anti-CD3/CD28 stimulation, relative to unstimulated cells, is shown (n=5). F. Left: Flow cytometry analysis of dead cells (Aqua Live/Dead^+) among total and T-bet+CD8^+ T cells. Right: Fold change in dead CD8^+ T cells induced by anti-CD3/CD28 stimulation, relative to the unstimulated condition (n=5). G. Frequencies of granzyme B^+, TL-2^+, IFN-γ^+, and TNF-α^+CD8^+ T cells after anti-CD3/CD28 stimulation. H. Expression of 1 to 4 functions in CD8^+ T cells after anti-CD3/CD28 stimulation (n=5). I. After reprogramming with the GSK3 inhibitor, CD8^+ T cells were stimulated for 48 hs with anti-CD3/CD28, followed by wash and resting for 5 days. Then, cells were restimulated for another 48 hs with anti-CD3/CD28. Left: Flow cytometry analysis of proliferating (CFSE dilution) CD8^+ T cells. Right: Frequencies of CD8^+ T cells with 0, 1-3 or ≥4 cell divisions (n=9). J. Frequency of the total HCMV pp65-specific CD8^+ T cell response (IFN-γ^+ or CD107a^+ or TNF-α^+), after vehicle control or GSK3 inhibitor treatment, followed by HCMV pp65 peptides stimulation for 6 hs (n=6). K. Frequencies of CD8^+ T cell subpopulations among HCMV pp65-specific CD8^+ T cells (n=6). L. Expression of IFN-γ, CD107a, and TNF-α in HCMV pp65-specific CD8^+ T cells (n=6). M. Frequency of the total HCMV pp65-specific CD8^+ T cell response after HCMV pp65 peptides stimulation for 6 days (n=6). *P<0.05; **P≤0.01. NS: Not statistically significant. TSCM: Stem cell memory; TCM: Central memory; TTM: Transitional memory; TEM: Effector memory; TTE: Terminal effector.
FIG. 2. A. Flow cytometry gating strategy used to identify CD8^+ T cell subpopulations: Naïve, Stem cell memory (TSCM), Central memory (TCM), Transitional memory (TTM), Effector memory (TEM), and Terminal effector (TTE). B. Expression of CCR7, CD27 and TCF-1 in total CD8^+ T cells after treatment with vehicle control, or the GSK3 inhibitors BIO or TWS119, for 12 hs. The median fluorescence intensity of each marker is depicted. C. Fold change in TSCM, TCM and TEM cells induced by BIO or TWS119, relative to vehicle control (n=3 people without HIV). D. Fold change in T-bet^+ cells among TSCM and TCM induced by anti-CD3/CD28 stimulation, relative to vehicle control, in cells previously treated with vehicle control, BIO or TWS119 (n=3). E. Fold change in T-bet^+ cells among naïve/TSCM induced by anti-CD3/CD28 stimulation (0.2 and 1 μg/mL), relative to unstimulated cells, previous treatment with vehicle control or the GSK3 inhibitor (n=3). F. Fold change in T-bet^+ cells among each CD8^+ T cell subpopulation induced by anti-CD3/CD28+ICAM-1 stimulation, relative to unstimulated cells (n=5). G. Frequency of IL-2^+TNF-α^+ cells among each CD8^+ T cell subpopulation after anti-CD3/CD28+ICAM-1 stimulation (n=5). H. Correlation between the frequency of PD-1^+LAG-3^+TIM3^+TIGIT^+CD8^+ T cells and the proportion of CD8^+ T cells with ≥4 cell divisions after restimulation (n=6). I. After reprogramming with the GSK3 inhibitor, CD8^+ T cells were left unstimulated, stimulated once for 48 hs with anti-CD3/CD28, or stimulated twice with anti-CD3/CD28. The expression of T-bet in TCM and TTM cells is shown (n=5). *P<0.05. […]

Assay [3] relates to GSK3. Particulars: cited from earlier work.

The IC50 is the midpoint of a concentration-inhibition curve. With `Nc1cccc(-c2cc3c(Oc4cccc(O)c4)ncnc3[nH]2)c1` [TWS119, 3-[[6-(3-aminophenyl)-7H-pyrrolo[2,3-d]pyrimidin-4-yl]oxy]phenol], in the assay on GSK3 [1], the Wnt/β-catenin/TCF-1 pathway result was “induce the activation”. Besides, in assay [2] (FIG. 2B), the “CCR7, CD27, and TCF-1” value is given as “induced”. Further, in assay [2] (FIG. 2C), the TEM cells entry is listed as “decrease”; the “TSCM and TCM cells” value was “increase”. In addition, the half-maximal inhibitory concentration (IC50) in the assay on GSK3 [3] (GSK3 inhibitor, review Front. Mol. Neurosci. 2011) is 0.6 to 7 nM. The “selectivity of inhibition of GSK3” value in the assay with GSK3 [3] is on record as “highly selective inhibitors”.
